The source of these data is a melting point compilation (Tetko et al.).

Each structure is given as a SMILES string.

As for `CN1CCc2c(sc(N)c2C#N)C1`, the melting point was 192 to 194 °C. As for `C=C1C(=O)OC2CC(C)C3C=CC(=O)C3(C)C(O)C12` (centres undefined), the figure is 168 °C; as for `O=C(O)c1cc(F)cc([N+](=O)[O-])c1`, 125 °C; as for `CC1CCC(C)(COC(=O)C2C(=O)C3(C)CCC2C3(C)C)C1(C)C` (centres undefined), 146 °C. As for `Cc1cc(C)c(C)c(O)c1C`, the figure is 118 °C. `CN(N)c1ccc(C(F)(F)F)cn1`: the melting point was in the range of 52 to 55 °C. The result for `CNCc1ccc(-c2ncccn2)cc1` reads 49.5 to 54.9 °C; that for `COc1cccc(/N=C(\C)c2c(O)c3ccccc3n(-c3ccccc3)c2=O)c1`, 178 to 179 °C.

As to `CCCCCc1ccc(S(=O)(=O)Cl)cc1`, the melting point lay within 42 to 44 °C. As for `CCOC(=O)/C(C#N)=C(/c1ccc([N+](=O)[O-])cc1)C(C(=O)OCC)C(=O)OCC`, the figure is 110 °C; as for `CC12CCC(/C(=C/N(O)c3ccccc3)C1=O)C2(C)C` (centres undefined), 106 to 107 °C; as for `COc1ccc(-c2nnc(CCl)o2)cc1`, 91 to 95 °C. `CCCOC(=O)C1=C(C)NC(=S)NC1c1ccccc1` (centres undefined) displayed a melting point of 169 °C.

`CC1=C(C(=O)OCc2ccccc2)C(c2ccco2)NC(=O)N1` (centres undefined) came in with a melting point of 195 °C. Molecule `CC(=O)Nc1cc(N)c(C=Cc2ccccc2)cc1/C=C/c1ccccc1` returned a melting point of 218 °C. As for `O=C(CBr)c1cccc(C(F)(F)F)c1`, the figure is 22 °C; as for `CN(C)c1ccccc1N(C)C`, 8.9 °C.

The molecule `Sc1nc(-c2ccccc2)c(-c2ccccc2)[nH]1` registered a melting point of 300 °C. The result for `O=c1[nH]cc(Cl)c(=O)[nH]1` reads 300 °C; that for `Cc1cc2cc3ccccc3cc2cc(C)c1=O`, 182 °C; that for `Cn1c(=O)c(C(N)=NO)cn(-c2ccccc2)c1=O`, 189 to 191 °C. The result for `O=C(c1ccccc1)C(F)(F)F` reads -40 °C; that for `Cc1ccc([N+](=O)[O-])c(I)c1`, 18 to 20 °C; that for `CC(=NNC(=O)c1ccncc1)c1ccco1`, 199 °C. As for `NS(=O)(=O)c1cc2c(cc1Cl)NC(Cc1ccc(F)cc1)NS2(=O)=O` (centres undefined), the figure is 239 °C; as for `O=Nc1c(-c2cccs2)nc2ncccn12`, 239 °C. `Nc1cc(=O)oc2ccccc12` showed a melting point of 232 to 234 °C. As for `CC1(C)N=C(c2ccccc2)C(C)(C)N1O`, the figure is 78.6 to 80.4 °C; as for `O=C(Cl)c1sc(-c2ccccc2)nc1-c1ccccc1`, 139 °C; as for `O=C(O)c1cc(Cl)ccc1N=NC1SC(=S)NC1=O` (centres undefined), 210 to 212 °C. As for `N#C/C(=N/Nc1cccc2ccccc12)c1nc2ccccc2s1`, the figure is 254 °C; as for `NNc1cc(C(F)(F)F)ccc1Cl`, 64 to 68 °C. As for `CCC1CC(NC(C)=O)CC(C)(C)N1O` (centres undefined), the figure is 142 to 145 °C; as for `CCOP(=O)(Cc1ccc(N)cc1)OCC`, 93 °C; as for `Nc1ccc(S(=O)(=O)NCCO)cc1`, 97 to 99 °C. Consider `Cc1cc(C(F)(F)F)n2nc(N)c(/N=N/c3cc(Cl)c(Cl)cc3Cl)c2n1`, for which the melting point came to 228 °C.

As to `C=CCOc1c(Cc2cc(C(C)=O)c(O)c(C)c2OCC=C)cc(C(C)=O)c(O)c1C`, the melting point amounted to 143 °C. `CC(C)(C)NC=O`: the melting point was 16 °C. On to `CCNCCO`, for which the melting point was -6 °C. The result for `CC(C)(O)C12CC3CC(CC(C3)C1)C2` reads 75 °C; that for `CCSC(=O)Cl`, -60 °C; that for `CC(=O)c1ccc(C)cc1O`, 21 °C. In the case of `CC(C)C(C)(N)P(=O)(O)O` (centres undefined), the melting point lay in the range of 248 to 255 °C.

`CC(=O)OCC1OC(c2nn[nH]n2)C(N2C(=O)c3ccccc3C2=O)C(OC(C)=O)C1OC(C)=O` (centres undefined) yielded a melting point of 98 °C.

The melting point is the temperature of the solid-liquid transition.
